# Assays:
# pseudotyped virus EBOV = test: microbe, parasite or virus in culture; type: cell-based, Zaire ebolavirus; conditions: for IC50: Zaire ebolavirus, TZM-bl, read-out: IC50 (µM) Pseudovirus, EBOV
# pseudotyped MARV = test: microbe, parasite or virus in culture; type: cell-based, Marburg marburgvirus; conditions: for IC50: Orthomarburgvirus marburgense, TZM-bl, read-out: IC50 (µM) Pseudovirus, MARV
# [1] = tested on: Wild-type EBOV (Makona C07 strain, IRF0192); test: microbe, parasite or virus in culture; type: cell-based, Ebola virus; conditions: Zaire ebolavirus, Huh-7, 48 h, read-out: IC50 (µM) Infectious Virus, EBOV
# MARV (Angola, IRF0202) = test: cells; type: cell-based, Marburg virus; conditions: Homo sapiens, Huh-7, 24 h, read-out: IC50 (µM) Infectious Virus, MARV
# HIV strain, HXBc2 (HX) = type: cell-based, Human immunodeficiency virus
# [2] = tested on: vesicular stomatitis virus (VSV); type: cell-based
# [3] = tested on: amphitropic murine leukemia virus (A-MLV); type: cell-based
# [4] = target: RBD of EBOV-GP (RBD-Fc fusion protein) (Zaire ebolavirus, UniProt Q05320); test: biochemical; type: binding
# in vitro = conditions: human
# Sequence of RBD of EBOV-GP (RBD-Fc fusion protein) (Q05320 54-201 limits assumed): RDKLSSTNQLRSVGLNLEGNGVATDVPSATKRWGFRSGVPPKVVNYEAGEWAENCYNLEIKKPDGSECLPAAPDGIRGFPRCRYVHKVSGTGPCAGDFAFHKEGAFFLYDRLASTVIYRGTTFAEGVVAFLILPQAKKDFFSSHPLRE
smiles,measurement,setting,value
"C[C@@]12NC(=O)[C@H](Cc3c1[nH]c1ccccc31)n1c2nc2ccccc2c1=O [Compound W12, Fumiquinazoline J]",Activity in screening against pseudotyped EBOV,pseudotyped virus EBOV,modest activities
same,Neutralization of pseudotyped EBOV in specificity test,pseudotyped virus EBOV,neutralizing
same,"SI, Selectivity index (CC50/IC50), EBOV",pseudotyped virus EBOV,15
same,IC50,pseudotyped virus EBOV,~1.68 µM
same,Activity in screening against pseudotyped MARV,pseudotyped MARV,modest activities
same,Neutralization of pseudotyped MARV in specificity test,pseudotyped MARV,neutralizing
same,"SI, Selectivity index (CC50/IC50), MARV",pseudotyped MARV,26
same,IC50,pseudotyped MARV,0.96 µM
same,IC50,[1],15.3 µM
same,IC50,"MARV (Angola, IRF0202)",64.5 µM
same,Neutralization of pseudotyped HIV (specificity),"HIV strain, HXBc2 (HX)",neither of them did so
same,Neutralization of pseudotyped VSV (specificity),[2],neither of them did so
same,Neutralization of pseudotyped A-MLV (specificity),[3],neither of them did so
same,Kd,[4],91.4 µM
same,CC50,in vitro,24.8 µM
"CC(C)=CCC[C@]1(C)[C@@H](O)CC[C@@]2(C)[C@H]1CC[C@H]1Cc3c([nH]c4ccccc34)[C@@]12C [Compound W26, Emindole SB]",Activity in screening against pseudotyped EBOV,pseudotyped virus EBOV,modest activities
same,Neutralization of pseudotyped EBOV in specificity test,pseudotyped virus EBOV,neutralizing
same,"SI, Selectivity index (CC50/IC50), EBOV",pseudotyped virus EBOV,7
same,IC50,pseudotyped virus EBOV,~3.17 µM
same,Activity in screening against pseudotyped MARV,pseudotyped MARV,modest activities
same,Neutralization of pseudotyped MARV in specificity test,pseudotyped MARV,neutralizing
same,"SI, Selectivity index (CC50/IC50), MARV",pseudotyped MARV,10
same,IC50,pseudotyped MARV,2.15 µM
same,IC50,[1],49.8 µM
same,IC50,"MARV (Angola, IRF0202)",95.7 µM
same,Neutralization of pseudotyped HIV (specificity),"HIV strain, HXBc2 (HX)",neither of them did so
same,Neutralization of pseudotyped VSV (specificity),[2],neither of them did so
same,Neutralization of pseudotyped A-MLV (specificity),[3],neither of them did so
same,CC50,in vitro,20.9 µM
"CC(=O)OCC(=O)OC1CCC2(C)C(CCC3c4c([nH]c5ccccc45)CC32C)C1(C)CCC=C(C)C (centres unmarked) [Compound W27, Fusaindoterpene B]",Activity in screening against pseudotyped EBOV,pseudotyped virus EBOV,modest activities
same,"SI, Selectivity index (CC50/IC50), EBOV",pseudotyped virus EBOV,7
same,IC50,pseudotyped virus EBOV,~2.82 µM
same,Activity in screening against pseudotyped MARV,pseudotyped MARV,modest activities
same,"SI, Selectivity index (CC50/IC50), MARV",pseudotyped MARV,6
same,IC50,pseudotyped MARV,2.63 µM
same,IC50,[1],33 µM
same,IC50,"MARV (Angola, IRF0202)",83.3 µM
same,CC50,in vitro,16.3 µM
"CC(=O)N[C@H](Cc1c[nH]c2ccccc12)C(=O)O [N-Ac-D-tryptophan, N-Acetyl-D-Tryptophan, reference compound]",Activity in screening against pseudotyped EBOV,pseudotyped virus EBOV,some activity
same,IC50,pseudotyped virus EBOV,> 48 µM
same,CC50,in vitro,> 60 µM
"CC(=O)N[C@@H](Cc1c[nH]c2ccccc12)C(=O)O [N-Ac-L-tryptophan, N-Acetyl-L-Tryptophan, reference compound]",Activity in screening against pseudotyped EBOV,pseudotyped virus EBOV,some activity
same,IC50,pseudotyped virus EBOV,> 48 µM
same,CC50,in vitro,> 60 µM

# From PMC11766795 (Marine Drugs, 2025)
